Laboratory results as given in patent US20230263914A1, “BENZENE RING-CONTAINING GLUCOSE DERIVATIVE AND USE THEREOF” (priority 2020, published 2023).

Key:
[1] = Determination of lipid-water partition coefficient (n-octanol/PBS pH 7.4); type: physicochemical; conditions: n-octanol / PBS 0.025 M; for logP: n-octanol/phosphate buffer solution (PBS)
Protocol: A 2 mL centrifuge tube was added with 100 µL (10µCi) of a labeling solution, then added with 950 µL of n-octanol and 850 µL of phosphate buffer solution (PBS, 0.025 M, pH=7.4). The 2 mL centrifuge tube was subjected to vortex for 3 min (2,500 rpm) and standing until the reaction solution was layered, and then centrifuged at 9,000 rpm for 5 min. Three samples (each for 100 µL) were collected from each of the two phases, and placed in γ-counter for the determination of radioactive counting. The lipid-water partition coefficient (P) was calculated by Organic phase radioactive counting/ water phase radioactive counting, and was usually expressed as Log P. The log P values of the radioactive compounds provided in Examples 1-4 were shown in Table 3.

S180 tumor = experiment: Biodistribution in tumor-bearing mice; type: in vivo; conditions: for Blood / Bone / Heart / Kidney / Liver / Lung / Muscle / Small intestine / Spleen / Thyroid / Tumor / Tumor/blood ratio / Tumor/muscle ratio: i.v., mice bearing S180 tumor; for target/non-target ratio compared with 99mTc-CNPEDG / tumor uptake compared with 99mTc-CNPEDG / tumor/muscle, tumor/blood and tumor/lung ratio compared with p-substituted 99mTc complexes / Tumor/lung ratio: 120 min p.i.
Protocol: The mice bearing S180 tumors were injected intravenously via the tail vein respectively with the solutions (0.1 mL, 370 kBq) containing the radioactive drugs of Examples 1-4. The mice bearing S180 tumors were sacrificed by decapitation at different time points (30 min, 120 min) after the injection (5 mice for each time point). After dissection, the heart, liver, lung, kidney, spleen, bone, muscle, small intestine, blood and tumors were harvested, and measured for radioactivity with the γ-counter. The biodistribution individual organs or tissues was expressed as the percentage of the injected dose per gram of organ or tissue (% ID/g).

[2] = 120 min, mean ± SD, listed as 99mTc-4-CNPEDG

Row | Structure (SMILES) | Blood (S180 tumor; 30 min, n=5, mean ± SD) [% ID/g] | Bone (S180 tumor; 30 min, n=5, mean ± SD) [% ID/g] | Heart (S180 tumor; 30 min, n=5, mean ± SD) [% ID/g] | Kidney (S180 tumor; 30 min, n=5, mean ± SD) [% ID/g] | Liver (S180 tumor; 30 min, n=5, mean ± SD) [% ID/g] | Lung (S180 tumor; 30 min, n=5, mean ± SD) [% ID/g] | Muscle (S180 tumor; 30 min, n=5, mean ± SD) [% ID/g] | Small intestine (S180 tumor; 30 min, n=5, mean ± SD) [% ID/g] | Spleen (S180 tumor; 30 min, n=5, mean ± SD) [% ID/g] | Thyroid (S180 tumor; 30 min, n=5, mean ± SD) [%ID/g] | Tumor (S180 tumor; 30 min, n=5, mean ± SD) [% ID/g] | Tumor/blood ratio (S180 tumor; 30 min, n=5, mean ± SD) | Blood (S180 tumor; 120 min, mean ± SD) [% ID/g] | Kidney (S180 tumor; 120 min, mean ± SD) [% ID/g] | Liver (S180 tumor; 120 min, mean ± SD) [% ID/g] | Lung (S180 tumor; 120 min, mean ± SD) [% ID/g] | Muscle (S180 tumor; 120 min, mean ± SD) [% ID/g] | Tumor (S180 tumor; 120 min, mean ± SD) [% ID/g] | Tumor/blood ratio (S180 tumor; 120 min, mean ± SD) | Tumor/muscle ratio (S180 tumor; 120 min, mean ± SD) | also measured
1 | O=C(NC1C(O)OC(CO)C(O)C1O)c1cccc([N+]#[C][99Tc+]([C]#[N+]c2cccc(C(=O)NC3C(O)OC(CO)C(O)C3O)c2)([C]#[N+]c2cccc(C(=O)NC3C(O)OC(CO)C(O)C3O)c2)([C]#[N+]c2cccc(C(=O)NC3C(O)OC(CO)C(O)C3O)c2)([C]#[N+]c2cccc(C(=O)NC3C(O)OC(CO)C(O)C3O)c2)[C]#[N+]c2cccc(C(=O)NC3C(O)OC(CO)C(O)C3O)c2)c1 (centres unmarked) [^99mTc-3-CNBzDG] | 2.53 ± 0.83 | 1.44 ± 0.29 | 1.44 ± 0.21 | 6.69 ± 0.68 | 1.38 ± 0.24 | 4.00 ± 0.52 | 0.77 ± 0.06 | 2.05 ± 0.29 | 1.06 ± 0.27 | 0.03 ± 0.01 | 2.51 ± 0.52 | 1.04 ± 0.22 | 0.27 ± 0.02 | 4.49 ± 0.56 | 0.89 ± 0.09 | 0.76 ± 0.20 | 0.24 ± 0.05 | 1.47 ± 0.22 | 5.39 ± 0.79 | 6.16 ± 0.71 | logP [1]: -3.74 ± 0.038; Tumor/muscle ratio (S180 tumor; 30 min, n=5, mean ± SD): 3.28 ± 0.66; Bone (S180 tumor; 120 min, mean ± SD): 0.42 ± 0.03 % ID/g; Heart (S180 tumor; 120 min, mean ± SD): 0.54 ± 0.07 % ID/g; Small intestine (S180 tumor; 120 min, mean ± SD): 0.70 ± 0.10 % ID/g; Spleen (S180 tumor; 120 min, mean ± SD): 0.43 ± 0.17 % ID/g; Thyroid (S180 tumor; 120 min, mean ± SD): 0.01 ± 0.00 %ID/g; target/non-target ratio compared with 99mTc-CNPEDG (S180 tumor; in words): better target/non-target ratio; tumor uptake compared with 99mTc-CNPEDG (S180 tumor; in words): lower tumor uptake; tumor/muscle, tumor/blood and tumor/lung ratio compared with p-substituted 99mTc complexes (S180 tumor; in words): higher; Tumor/lung ratio (S180 tumor; mean ± SD): 2.01 ± 0.35
2 | O=C(NC1C(O)OC(CO)C(O)C1O)c1cccc(C[N+]#[C][99Tc+]([C]#[N+]Cc2cccc(C(=O)NC3C(O)OC(CO)C(O)C3O)c2)([C]#[N+]Cc2cccc(C(=O)NC3C(O)OC(CO)C(O)C3O)c2)([C]#[N+]Cc2cccc(C(=O)NC3C(O)OC(CO)C(O)C3O)c2)([C]#[N+]Cc2cccc(C(=O)NC3C(O)OC(CO)C(O)C3O)c2)[C]#[N+]Cc2cccc(C(=O)NC3C(O)OC(CO)C(O)C3O)c2)c1 (centres unmarked) [^99mTc-3-CNPEDG] | 2.82 ± 0.30 | 1.26 ± 0.23 | 1.18 ± 0.12 | 9.69 ± 3.48 | 1.30 ± 0.06 | 3.10 ± 0.22 | 0.82 ± 0.24 | 2.19 ± 0.69 | 0.86 ± 0.09 | 0.04 ± 0.01 | 2.72 ± 0.36 | 0.97 ± 0.07 | 0.22 ± 0.07 | 4.70 ± 0.81 | 0.68 ± 0.07 | 0.42 ± 0.09 | 0.16 ± 0.04 | 1.35 ± 0.20 | 6.40 ± 1.45 | 8.76 ± 1.14 | logP [1]: -3.39 ± 0.166; Tumor/muscle ratio (S180 tumor; 30 min, n=5, mean ± SD): 3.49 ± 0.71; Bone (S180 tumor; 120 min, mean ± SD): 0.30 ± 0.06 % ID/g; Heart (S180 tumor; 120 min, mean ± SD): 0.23 ± 0.05 % ID/g; Small intestine (S180 tumor; 120 min, mean ± SD): 0.43 ± 0.11 % ID/g; Spleen (S180 tumor; 120 min, mean ± SD): 0.25 ± 0.06 % ID/g; Thyroid (S180 tumor; 120 min, mean ± SD): 0.01 ± 0.00 %ID/g; target/non-target ratio compared with 99mTc-CNPEDG (S180 tumor; in words): better target/non-target ratio; tumor uptake compared with 99mTc-CNPEDG (S180 tumor; in words): lower tumor uptake; tumor/muscle, tumor/blood and tumor/lung ratio compared with p-substituted 99mTc complexes (S180 tumor; in words): higher; Tumor/lung ratio (S180 tumor; mean ± SD): 3.26 ± 0.37
3 | O=C(NC1C(O)OC(CO)C(O)C1O)c1ccc([N+]#[C][99Tc+]([C]#[N+]c2ccc(C(=O)NC3C(O)OC(CO)C(O)C3O)cc2)([C]#[N+]c2ccc(C(=O)NC3C(O)OC(CO)C(O)C3O)cc2)([C]#[N+]c2ccc(C(=O)NC3C(O)OC(CO)C(O)C3O)cc2)([C]#[N+]c2ccc(C(=O)NC3C(O)OC(CO)C(O)C3O)cc2)[C]#[N+]c2ccc(C(=O)NC3C(O)OC(CO)C(O)C3O)cc2)cc1 (centres unmarked) [^99mTc-4-CNBzDG] |  |  |  |  |  |  |  |  |  |  |  |  |  |  |  |  |  |  | 0.47 ± 0.02 | 2.34 ± 0.18 | Tumor/lung ratio (S180 tumor; mean ± SD): 0.49 ± 0.02
4 | O=C(Cc1ccc(C[N+]#[C][99Tc+]([C]#[N+]Cc2ccc(CC(=O)NC3C(O)OC(CO)C(O)C3O)cc2)([C]#[N+]Cc2ccc(CC(=O)NC3C(O)OC(CO)C(O)C3O)cc2)([C]#[N+]Cc2ccc(CC(=O)NC3C(O)OC(CO)C(O)C3O)cc2)([C]#[N+]Cc2ccc(CC(=O)NC3C(O)OC(CO)C(O)C3O)cc2)[C]#[N+]Cc2ccc(CC(=O)NC3C(O)OC(CO)C(O)C3O)cc2)cc1)NC1C(O)OC(CO)C(O)C1O (centres unmarked) [^99mTc-4-CNMBDG] | 4.08 ± 0.57 | 3.05 ± 0.62 | 2.67 ± 0.41 | 10.18 ± 1.28 | 3.00 ± 0.55 | 5.89 ± 0.59 | 1.96 ± 0.50 | 4.04 ± 0.87 | 2.24 ± 0.38 | 0.07 ± 0.01 | 6.46 ± 1.86 | 1.57 ± 0.36 | 0.64 ± 0.22 | 7.37 ± 1.71 | 2.43 ± 0.49 | 1.31 ± 0.44 | 0.86 ± 0.15 | 6.22 ± 1.77 | 10.06 ± 1.54 | 7.14 ± 1.11 | logP [1]: -3.1 ± 0.036; Tumor/muscle ratio (S180 tumor; 30 min, n=5, mean ± SD): 3.52 ± 1.35; Bone (S180 tumor; 120 min, mean ± SD): 1.27 ± 0.35 % ID/g; Heart (S180 tumor; 120 min, mean ± SD): 1.31 ± 0.18 % ID/g; Small intestine (S180 tumor; 120 min, mean ± SD): 1.65 ± 0.43 % ID/g; Spleen (S180 tumor; 120 min, mean ± SD): 1.28 ± 0.34 % ID/g; Thyroid (S180 tumor; 120 min, mean ± SD): 0.03 ± 0.01 %ID/g; tumor uptake compared with 99mTc-CNPEDG (S180 tumor; in words): higher tumor uptake; clearance in blood (S180 tumor; compared with 99mTc-CNPEDG, in words): faster clearance in blood
5 | O=C(NC1C(O)OC(CO)C(O)C1O)c1ccc(CC[N+]#[C][99Tc+]([C]#[N+]CCc2ccc(C(=O)NC3C(O)OC(CO)C(O)C3O)cc2)([C]#[N+]CCc2ccc(C(=O)NC3C(O)OC(CO)C(O)C3O)cc2)([C]#[N+]CCc2ccc(C(=O)NC3C(O)OC(CO)C(O)C3O)cc2)([C]#[N+]CCc2ccc(C(=O)NC3C(O)OC(CO)C(O)C3O)cc2)[C]#[N+]CCc2ccc(C(=O)NC3C(O)OC(CO)C(O)C3O)cc2)cc1 (centres unmarked) [^99mTc-4-CNPeDG] | 2.42 ± 0.16 | 1.10 ± 0.07 | 1.15 ± 0.04 | 7.32 ± 0.90 | 0.95 ± 0.03 | 2.80 ± 0.13 | 0.68 ± 0.05 | 1.38 ± 0.20 | 0.70 ± 0.02 | 0.02 ± 0.00 | 2.80 ± 0.04 | 1.16 ± 0.09 | 0.10 ± 0.04 | 2.98 ± 0.74 | 0.38 ± 0.08 | 0.23 ± 0.03 | 0.10 ± 0.02 | 0.95 ± 0.21 | 10.17 ± 1.95 | 9.69 ± 1.81 | Log P [1]: -3.593 ± 0.012; Tumor/muscle ratio (S180 tumor; 30 min, n=5, mean ± SD): 4.16 ± 0.35; Bone (S180 tumor; 120 min, mean ± SD): 0.18 ± 0.03 % ID/g; Heart (S180 tumor; 120 min, mean ± SD): 0.15 ± 0.02 % ID/g; Small intestine (S180 tumor; 120 min, mean ± SD): 0.31 ± 0.07 % ID/g; Spleen (S180 tumor; 120 min, mean ± SD): 0.17 ± 0.03 % ID/g; Thyroid (S180 tumor; 120 min, mean ± SD): 0.003 ± 0.001 %ID/g; Tumor/blood ratio (S180 tumor; [2]): 3.29 ± 0.12; Tumor/muscle ratio (S180 tumor; [2]): 5.21 ± 0.50; target/non-target ratio compared with 99mTc-CNPEDG (S180 tumor; in words): better target/non-target ratio; tumor uptake compared with 99mTc-CNPEDG (S180 tumor; in words): lower tumor uptake; Tumor/lung ratio (S180 tumor; mean ± SD): 1.81 ± 0.30
6 | O=C(NC1C(O)OC(CO)C(O)C1O)c1ccc(C[N+]#[C][99Tc+]([C]#[N+]Cc2ccc(C(=O)NC3C(O)OC(CO)C(O)C3O)cc2)([C]#[N+]Cc2ccc(C(=O)NC3C(O)OC(CO)C(O)C3O)cc2)([C]#[N+]Cc2ccc(C(=O)NC3C(O)OC(CO)C(O)C3O)cc2)([C]#[N+]Cc2ccc(C(=O)NC3C(O)OC(CO)C(O)C3O)cc2)[C]#[N+]Cc2ccc(C(=O)NC3C(O)OC(CO)C(O)C3O)cc2)cc1 (centres unmarked) [^99mTc-CNPEDG, reference compound] |  |  |  |  |  |  |  |  |  |  |  |  | 1.29 ± 0.16 | 7.56 ± 0.94 | 2.52 ± 0.26 | 2.39 ± 0.31 | 0.82 ± 0.08 | 4.25 ± 0.56 | 3.29 ± 0.12 | 5.21 ± 0.50 | 
